Measurements: patent US10500166B2, “Methods for the treatment of erectile dysfunction using fispemifene” (QUATRX PHARMACEUTICALS, priority 2007, dated 2019)

Key:
free testosterone = test: Example 3 study in hypogonadal men: serum free testosterone measured by equilibrium dialysis (ITT); format: in vivo, human
Procedure: FIG. 6 depicts a graph of the data of the study from Example 3 showing serum free testosterone levels (ng/dL) measured by equilibrium dialysis over time for each of the treatment groups. The bars from left to right for each of the BL (baseline), 2 week, 4 week, and 6 week timepoints (the 6 week timepoint occurred 2 weeks after the discontinuation of study drug at week 4) correspond to the placebo, 100 mg, 200 mg, and 300 mg/day doses, respectively;
(§1) A randomized, double-blind, placebo controlled, parallel-group study of once-daily doses of fispemifene (100, 200, and 300 mg/day) given for 4 weeks was conducted in a population of hypogonadal men. Subjects were required to meet all of the following inclusion criteria at screening and prior to randomization to be eligible for the study:
(§2) There were 77 subjects total. The number of subjects randomized to the 100 mg fispemifene, 200 mg fispemifene, 300 mg fispemifene, and placebo arms were 21, 21, 19, and 16, respectively.
(§3) Subjects were randomly assigned to one of four treatment groups in a 1:1:1:1 ratio: • Treatment A (100 mg): fispemifene 100 mg+placebo+placebo; • Treatment B (200 mg): fispemifene 100 mg+fispemifene 100 mg+placebo; • Treatment C (300 mg): fispemifene 100 mg+fispemifene 100 mg+fispemifene 100 mg; and • Treatment D (Placebo): placebo+placebo+placebo.
(§4) Subjects took one dose (three capsules) of study medication once a day at home for 4 weeks. Capsules were to be taken in the morning immediately after breakfast, with the exception of the morning of the Week 4 visit. Capsules were not to be taken on the morning of the Week 4 visit because trough plasma levels of fispemifene were determined by a blood sample taken at this visit. Each subject was randomly assigned to treatment with one of the 3 different dose regimens of fispemifene or placebo vehicle. Each subject received a 4 week supply of study drug.
(§5) Blood samples were taken from the subjects within 1 week prior to dosing with study drug to establish baseline values; after 2 and 4 weeks of randomization; and 2 weeks after the last dose of study drug. Serum was prepared from those samples and used to determine the mean % change from baseline in total testosterone, free testosterone, SHBG (sex hormone-binding globulin), DHT (dihydrotestosterone), E2 (estradiol), LH (luteinizing hormone), FSH (follicle stimulating hormone), and inhibin B.
1. Percent change from baseline in free testosterone and calculated free testosterone at Weeks 2, 4, and 6;

inhibin B = test: Example 3 study in hypogonadal men: serum inhibin B (ITT); format: in vivo, human; conditions: for Inhibin B % Change from Baseline to Week 2, Max / Inhibin B % Change from Baseline to Week 2, Mean ± SD / Inhibin B % Change from Baseline to Week 2, Median / Inhibin B % Change from Baseline to Week 2, Min: Week 2, (Week minus Baseline) divided by Baseline; for Inhibin B % Change from Baseline to Week 2, Max / Inhibin B % Change from Baseline to Week 2, Mean ± SD / Inhibin B % Change from Baseline to Week 2, Median / Inhibin B % Change from Baseline to Week 2, Min / Inhibin B % Change from Baseline to Week 4, Max / Inhibin B % Change from Baseline to Week 4, Mean ± SD / Inhibin B % Change from Baseline to Week 4, Median / Inhibin B % Change from Baseline to Week 4, Min / Inhibin B % Change from Baseline to Week 6, Max / Inhibin B % Change from Baseline to Week 6, Mean ± SD / Inhibin B % Change from Baseline to Week 6, Median / Inhibin B % Change from Baseline to Week 6, Min: LOCF; for Inhibin B % Change from Baseline to Week 4, Max / Inhibin B % Change from Baseline to Week 4, Mean ± SD / Inhibin B % Change from Baseline to Week 4, Median / Inhibin B % Change from Baseline to Week 4, Min: Week 4, (Week minus Baseline) divided by Baseline; for Inhibin B % Change from Baseline to Week 6, Max / Inhibin B % Change from Baseline to Week 6, Mean ± SD / Inhibin B % Change from Baseline to Week 6, Median / Inhibin B % Change from Baseline to Week 6, Min: Week 6, (Week minus Baseline) divided by Baseline
Procedure: as §1, §2, §3, §4, §5
3. Percent change from baseline in SHBG, DHT, E2, LH, FSH, inhibin B, and testosterone/E2 ratio at Weeks 2, 4, and 6.

[1] = 100 mg/day, Week 6 (2 weeks after discontinuation)
[2] = 200 mg/day, Week 6 (2 weeks after discontinuation)
[3] = 300 mg/day, Week 6 (2 weeks after discontinuation)

SMILES: OCCOCCOc1ccc(/C(=C(/CCCl)c2ccccc2)c2ccccc2)cc1 [Fispemifene, (Z)-2-{2-[4-(4-Chloro-1,2-diphenylbut-1-enyl)phenoxy]ethoxy}ethanol]
- Free Testosterone, Max (free testosterone; 100 mg/day, Baseline (Visit 2)): 12.20 ng/dL
- Free Testosterone, Mean ± SD (free testosterone; 100 mg/day, Baseline (Visit 2)): 8.35 ± 2.536 ng/dL
- Free Testosterone, Median (free testosterone; 100 mg/day, Baseline (Visit 2)): 8.40 ng/dL
- Free Testosterone, Min (free testosterone; 100 mg/day, Baseline (Visit 2)): 3.20 ng/dL
- Free Testosterone, Max (free testosterone; 100 mg/day, Week 2): 17.7 ng/dL
- Free Testosterone, Mean ± SD (free testosterone; 100 mg/day, Week 2): 11.6 ± 3.93 ng/dL
- Free Testosterone, Median (free testosterone; 100 mg/day, Week 2): 10.3 ng/dL
- Free Testosterone, Min (free testosterone; 100 mg/day, Week 2): 5.7 ng/dL
- Free Testosterone, Max (free testosterone; 100 mg/day, Week 4): 18.2 ng/dL
- Free Testosterone, Mean ± SD (free testosterone; 100 mg/day, Week 4): 11.3 ± 3.40 ng/dL
- Free Testosterone, Median (free testosterone; 100 mg/day, Week 4): 10.8 ng/dL
- Free Testosterone, Min (free testosterone; 100 mg/day, Week 4): 6.4 ng/dL
- Free Testosterone, Max (free testosterone; [1]): 13.30 ng/dL
- Free Testosterone, Mean ± SD (free testosterone; [1]): 8.93 ± 0.023 ng/dL
- Free Testosterone, Median (free testosterone; [1]): 9.80 ng/dL
- Free Testosterone, Min (free testosterone; [1]): 4.90 ng/dL
- Free Testosterone, % Change from Baseline, Mean ± SD (free testosterone; 100 mg/day, to Week 2): 0.4 ± 0.00387%
- Free Testosterone, Max (free testosterone; 200 mg/day, Baseline (Visit 2)): 15.90 ng/dL
- Free Testosterone, Mean ± SD (free testosterone; 200 mg/day, Baseline (Visit 2)): 8.48 ± 3.043 ng/dL
- Free Testosterone, Median (free testosterone; 200 mg/day, Baseline (Visit 2)): 8.50 ng/dL
- Free Testosterone, Min (free testosterone; 200 mg/day, Baseline (Visit 2)): 4.30 ng/dL
- Free Testosterone, Max (free testosterone; 200 mg/day, Week 2): 16.4 ng/dL
- Free Testosterone, Mean ± SD (free testosterone; 200 mg/day, Week 2): 10.6 ± 3.52 ng/dL
- Free Testosterone, Median (free testosterone; 200 mg/day, Week 2): 10.0 ng/dL
- Free Testosterone, Min (free testosterone; 200 mg/day, Week 2): 4.8 ng/dL
- Free Testosterone, Max (free testosterone; 200 mg/day, Week 4): 19.4 ng/dL
- Free Testosterone, Mean ± SD (free testosterone; 200 mg/day, Week 4): 11.8 ± 3.80 ng/dL
- Free Testosterone, Median (free testosterone; 200 mg/day, Week 4): 12.2 ng/dL
- Free Testosterone, Min (free testosterone; 200 mg/day, Week 4): 5.2 ng/dL
- Free Testosterone, Max (free testosterone; [2]): 16.80 ng/dL
- Free Testosterone, Mean ± SD (free testosterone; [2]): 9.10 ± 3.307 ng/dL
- Free Testosterone, Median (free testosterone; [2]): 8.00 ng/dL
- Free Testosterone, Min (free testosterone; [2]): 5.40 ng/dL
- Free Testosterone, Max (free testosterone; 300 mg/day, Baseline (Visit 2)): 12.30 ng/dL
- Free Testosterone, Mean ± SD (free testosterone; 300 mg/day, Baseline (Visit 2)): 8.19 ± 2.966 ng/dL
- Free Testosterone, Median (free testosterone; 300 mg/day, Baseline (Visit 2)): 8.20 ng/dL
- Free Testosterone, Max (free testosterone; 300 mg/day, Week 2): 22.0 ng/dL
- Free Testosterone, Mean ± SD (free testosterone; 300 mg/day, Week 2): 12.1 ± 4.96 ng/dL
- Free Testosterone, Median (free testosterone; 300 mg/day, Week 2): 12.9 ng/dL
- Free Testosterone, Min (free testosterone; 300 mg/day, Week 2): 0.2 ng/dL
- Free Testosterone, Max (free testosterone; 300 mg/day, Week 4): 21.2 ng/dL
- Free Testosterone, Mean ± SD (free testosterone; 300 mg/day, Week 4): 12.5 ± 5.00 ng/dL
- Free Testosterone, Median (free testosterone; 300 mg/day, Week 4): 14.0 ng/dL
- Free Testosterone, Min (free testosterone; 300 mg/day, Week 4): 0.1 ng/dL
- Free Testosterone, Max (free testosterone; [3]): 17.30 ng/dL
- Free Testosterone, Mean ± SD (free testosterone; [3]): 9.30 ± 3.567 ng/dL
- Free Testosterone, Median (free testosterone; [3]): 9.80 ng/dL
- Free Testosterone, Min (free testosterone; [3]): 0.30 ng/dL
- Inhibin B % Change from Baseline to Week 2, Max (inhibin B; 100 mg): 1.64
- Inhibin B % Change from Baseline to Week 2, Mean ± SD (inhibin B; 100 mg): 0.24 ± 0.493
- Inhibin B % Change from Baseline to Week 2, Median (inhibin B; 100 mg): 0.17
- Inhibin B % Change from Baseline to Week 2, Min (inhibin B; 100 mg): −0.44
- Inhibin B % Change from Baseline to Week 4, Max (inhibin B; 100 mg): 1.86
- Inhibin B % Change from Baseline to Week 4, Mean ± SD (inhibin B; 100 mg): 0.30 ± 0.631
- Inhibin B % Change from Baseline to Week 4, Median (inhibin B; 100 mg): 0.09
- Inhibin B % Change from Baseline to Week 4, Min (inhibin B; 100 mg): −0.61
- Inhibin B % Change from Baseline to Week 6, Max (inhibin B; 100 mg): 1.40
- Inhibin B % Change from Baseline to Week 6, Mean ± SD (inhibin B; 100 mg): 0.41 ± 0.572
- Inhibin B % Change from Baseline to Week 6, Median (inhibin B; 100 mg): 0.29
- Inhibin B % Change from Baseline to Week 6, Min (inhibin B; 100 mg): −0.41
- Inhibin B Actual Value at Baseline (Visit 2), Max (inhibin B; 100 mg): 191.0 pg/mL
- Inhibin B Actual Value at Baseline (Visit 2), Mean ± SD (inhibin B; 100 mg): 95.1 ± 46.32 pg/mL
- Inhibin B Actual Value at Baseline (Visit 2), Median (inhibin B; 100 mg): 89.0 pg/mL
- Inhibin B Actual Value at Baseline (Visit 2), Min (inhibin B; 100 mg): 22.0 pg/mL
- Inhibin B % Change from Baseline to Week 2, Max (inhibin B; 200 mg): 1.48
- Inhibin B % Change from Baseline to Week 2, Mean ± SD (inhibin B; 200 mg): 039 ± 0.534
- Inhibin B % Change from Baseline to Week 2, Median (inhibin B; 200 mg): 0.21
- Inhibin B % Change from Baseline to Week 2, Min (inhibin B; 200 mg): −0.22
- Inhibin B % Change from Baseline to Week 4, Max (inhibin B; 200 mg): 3.40
- Inhibin B % Change from Baseline to Week 4, Mean ± SD (inhibin B; 200 mg): 0.42 ± 0.862
- Inhibin B % Change from Baseline to Week 4, Median (inhibin B; 200 mg): 0.12
- Inhibin B % Change from Baseline to Week 4, Min (inhibin B; 200 mg): −0.44
- Inhibin B % Change from Baseline to Week 6, Max (inhibin B; 200 mg): 2.00
- Inhibin B % Change from Baseline to Week 6, Mean ± SD (inhibin B; 200 mg): 0.40 ± 0.628
- Inhibin B % Change from Baseline to Week 6, Median (inhibin B; 200 mg): 0.22
- Inhibin B % Change from Baseline to Week 6, Min (inhibin B; 200 mg): −0.34
- Inhibin B Actual Value at Baseline (Visit 2), Max (inhibin B; 200 mg): 220.0 pg/mL
- Inhibin B Actual Value at Baseline (Visit 2), Mean ± SD (inhibin B; 200 mg): 105.6 ± 59.43 pg/mL
- Inhibin B Actual Value at Baseline (Visit 2), Median (inhibin B; 200 mg): 95.0 pg/mL
- Inhibin B Actual Value at Baseline (Visit 2), Min (inhibin B; 200 mg): 16.0 pg/mL
- Inhibin B % Change from Baseline to Week 2, Max (inhibin B; 300 mg): 0.97
- Inhibin B % Change from Baseline to Week 2, Mean ± SD (inhibin B; 300 mg): 0.12 ± 0.400
- Inhibin B % Change from Baseline to Week 2, Median (inhibin B; 300 mg): 0.05
- Inhibin B % Change from Baseline to Week 2, Min (inhibin B; 300 mg): −0.42
- Inhibin B % Change from Baseline to Week 4, Max (inhibin B; 300 mg): 0.878
- Inhibin B % Change from Baseline to Week 4, Mean ± SD (inhibin B; 300 mg): 0.016 ± 0.2904
- Inhibin B % Change from Baseline to Week 4, Median (inhibin B; 300 mg): −0.012
- Inhibin B % Change from Baseline to Week 4, Min (inhibin B; 300 mg): −0.459
- Inhibin B % Change from Baseline to Week 6, Max (inhibin B; 300 mg): 0.645
- Inhibin B % Change from Baseline to Week 6, Mean ± SD (inhibin B; 300 mg): 0.004 ± 0.3349
- Inhibin B % Change from Baseline to Week 6, Median (inhibin B; 300 mg): −0.057
- Inhibin B % Change from Baseline to Week 6, Min (inhibin B; 300 mg): −0.493
- Inhibin B Actual Value at Baseline (Visit 2), Max (inhibin B; 300 mg): 334.0 pg/mL
- Inhibin B Actual Value at Baseline (Visit 2), Mean ± SD (inhibin B; 300 mg): 127.3 ± 75.76 pg/mL
- Inhibin B Actual Value at Baseline (Visit 2), Median (inhibin B; 300 mg): 128.0 pg/mL
- Inhibin B Actual Value at Baseline (Visit 2), Min (inhibin B; 300 mg): 16.0 pg/mL
